Measurements as given in patent US20140163026A1, “8-ETHYL-6-(ARYL)PYRIDO[2,3-D]PYRIMIDIN-7(8H)-ONES FOR THE TREATMENT OF NERVOUS SYSTEM DISORDERS AND CANCER” (Afraxis Holdings, Inc., priority 2011, published 2014).

Legend:
PAK1 = PAK1 (Homo sapiens, UniProt Q13153); assay: In vitro PAK inhibition assay (SelectScreen, Ser/Thr 19 peptide); assay type: biochemical
How it was run: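 Kinase reaction ran in 50 mM HEPES pH 7.5, 0.01% BRIJ-35, 10 mM MgCl2, 1 mM EGTA with Ser/Thr 19 peptide for 60 min at room temperature, followed by 60 min protease development. Fluorescence gave percent phosphorylation. Compounds were tested as 10-point, 3-fold titrations in 1% DMSO final.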

PAK2 (PAK65) = PAK2 (PAK65) (Homo sapiens, UniProt Q13177); assay: In vitro PAK inhibition assay (SelectScreen, Ser/Thr 20 peptide); assay type: biochemical
Chain of PAK2 (PAK65) (Q13177 whole entry): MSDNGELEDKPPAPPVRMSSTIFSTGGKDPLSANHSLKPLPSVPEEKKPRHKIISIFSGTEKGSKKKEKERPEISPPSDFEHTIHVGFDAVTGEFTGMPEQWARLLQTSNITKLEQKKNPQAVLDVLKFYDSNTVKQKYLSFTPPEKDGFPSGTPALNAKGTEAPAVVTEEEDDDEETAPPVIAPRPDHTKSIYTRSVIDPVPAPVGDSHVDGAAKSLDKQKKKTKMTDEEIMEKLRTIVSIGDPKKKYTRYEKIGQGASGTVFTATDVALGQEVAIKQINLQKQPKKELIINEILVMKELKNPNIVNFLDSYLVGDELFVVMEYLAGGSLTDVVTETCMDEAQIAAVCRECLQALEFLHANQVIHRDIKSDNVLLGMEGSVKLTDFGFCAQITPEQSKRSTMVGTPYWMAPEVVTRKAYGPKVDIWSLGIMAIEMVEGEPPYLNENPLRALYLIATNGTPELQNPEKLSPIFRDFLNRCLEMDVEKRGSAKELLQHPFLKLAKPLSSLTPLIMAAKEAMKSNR
How it was run: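 FRET-based peptide cleavage assay: 0.29-6 ng PAK2 and 2 μM Ser/Thr 20 peptide in 50 mM HEPES pH 7.5, 10 mM MgCl2, 1 mM EGTA, 0.01% BRIJ-35, 1% DMSO final. Kinase reaction 60 min at room temperature, then 60 min development; 10-point 3-fold titrations, percent phosphorylation from fluorescence.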

PAK3 = PAK3 (Homo sapiens, UniProt O75914); assay: as above; assay type: biochemical
Chain of PAK3 (O75914 whole entry): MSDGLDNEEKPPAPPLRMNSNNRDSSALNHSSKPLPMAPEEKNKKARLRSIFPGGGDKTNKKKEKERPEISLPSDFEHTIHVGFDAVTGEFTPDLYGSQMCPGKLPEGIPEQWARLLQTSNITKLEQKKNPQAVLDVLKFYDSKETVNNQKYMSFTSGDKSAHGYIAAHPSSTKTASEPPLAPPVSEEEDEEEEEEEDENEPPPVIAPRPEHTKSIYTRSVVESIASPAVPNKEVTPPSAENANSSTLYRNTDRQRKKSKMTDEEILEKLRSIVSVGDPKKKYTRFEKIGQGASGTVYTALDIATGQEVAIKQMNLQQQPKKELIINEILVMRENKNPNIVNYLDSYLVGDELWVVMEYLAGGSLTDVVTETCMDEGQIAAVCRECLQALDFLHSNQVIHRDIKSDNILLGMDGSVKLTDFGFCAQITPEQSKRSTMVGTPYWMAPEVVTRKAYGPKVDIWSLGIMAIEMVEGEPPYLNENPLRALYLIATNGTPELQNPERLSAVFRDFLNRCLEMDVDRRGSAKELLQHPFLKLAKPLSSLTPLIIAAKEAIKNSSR
How it was run: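 PAK3 phosphorylation of Ser/Thr 20 peptide in 50 mM HEPES pH 7.5, 0.01% BRIJ-35, 10 mM MgCl2, 1 mM EGTA, 1% DMSO final; 60 min at room temperature, then 60 min development reaction with fluorescence read-out. 10-point 3-fold titrations; percent phosphorylation from 0% and 100% phosphopeptide controls.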

PAK4 = PAK4 (Homo sapiens, UniProt O96013); assay: as above; assay type: biochemical
Chain of PAK4 (O96013 whole entry): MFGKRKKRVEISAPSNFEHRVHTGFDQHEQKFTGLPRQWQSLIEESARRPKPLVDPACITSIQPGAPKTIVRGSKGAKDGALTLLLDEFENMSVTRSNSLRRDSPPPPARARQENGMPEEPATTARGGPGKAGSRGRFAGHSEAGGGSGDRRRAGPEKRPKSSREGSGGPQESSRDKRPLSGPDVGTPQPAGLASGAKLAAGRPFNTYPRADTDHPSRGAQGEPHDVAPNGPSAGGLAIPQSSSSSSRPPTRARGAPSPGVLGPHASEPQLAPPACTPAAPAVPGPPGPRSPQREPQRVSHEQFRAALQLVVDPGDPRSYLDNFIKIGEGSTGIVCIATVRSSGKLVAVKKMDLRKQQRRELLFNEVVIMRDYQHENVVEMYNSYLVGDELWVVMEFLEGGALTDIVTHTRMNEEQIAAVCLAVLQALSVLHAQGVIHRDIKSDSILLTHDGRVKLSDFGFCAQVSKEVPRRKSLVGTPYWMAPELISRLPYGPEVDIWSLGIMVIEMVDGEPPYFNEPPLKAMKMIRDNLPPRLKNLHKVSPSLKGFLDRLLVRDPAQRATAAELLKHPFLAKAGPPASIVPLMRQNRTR
How it was run: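 FRET-based Ser/Thr 20 peptide phosphorylation: 0.1-0.75 ng PAK4, 2 μM peptide in 50 mM HEPES pH 7.5, 10 mM MgCl2, 1 mM EGTA, 0.01% BRIJ-35, 1% DMSO; 60 min at room temperature, then 60 min protease development. 10-point 3-fold titrations; IC50 from sigmoidal fit.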

NF2−/− Schwannoma cells = assay: Growth inhibition of NF2 deficient cells (CellTiter-Glo); assay type: cell-based; details: 1 uM concentration, FIG. 6
Description: (§1) NF2 deficient cell lines were cultured in the appropriate medium. Once enough cells have propagated, plates of all adherent lines were seeded at 5,000-10,000 cells/well (depending on cell line) in a total volume of 50 μL, and plates of all suspension lines at 10,000-20,000 cells/well (depending on cell line) in a total volume of 50 μL. Plates were placed in a humidified cell culture incubator overnight to allow adherent cells to attach.
(§2) 10 mM stocks of each PAK inhibitor compound in DMSO were prepared. Dilutions were performed with media to provide 1% DMSO 2× stock solutions of each PAK inhibitor compound.
(§3) 50 μL of all PAK inhibitor compound 2× stocks were added to appropriate wells already containing 50 μL of cells and medium to expose cells to the final concentrations of compounds required. 50 μL of media was added to media and cell control wells and 50 μL of mix to vehicle control wells. At the same time as drug exposure, a CTG (CellTiter-Glo Assay) assay was performed on the 0 hr plate to obtain a 0 hr count. Cells were exposed to PAK inhibitor compounds or a DMSO control for 72 hours. Following the 72 hour exposure period, all remaining plates were assayed using CTG.
(§4) At the end of the 72 hour exposure period, plates were removed for a CTG assay from 37° C., 5% CO2 incubator and place on the bench at room temperature for 30 mins. 100 μL CTG reagent was added to each well, mixed for 2 minutes, followed by a further 10 minute incubation at room temperature. Luminescence for each well was determined.
(§5) Growth inhibition percent was calculated using the following equation: (Growth %=(Sample Value−T0Ave)/(Max−T0Ave)*100).
NF2^−/− Schwannoma cells were treated with a DMSO control or a PAK inhibitor compound (1 uM concentration) disclosed in Examples 101, 122, or 190.

[1] = system: NF2−/− mesothelioma cells (NCI-H226); assay: as above; assay type: cell-based; details: 0 μM-30 μM, 72 hours, FIG. 7
Description: as §1, §2, §3, §4, §5
NF2^−/− mesothelioma cells (e.g., NCI-H226 cells) were treated with varying concentrations of a PAK inhibitor compound disclosed in Examples 33, 84, or 122.

EBC-1 cells = assay: Growth inhibition of PAK1 amplified NSCLC cells (CellTiter-Glo); assay type: cell-based; details: 0 μM-30 μM, 72 hours, FIG. 8
Description: as §1, with “The PAK1 amplified” for “NF2 deficient”
as §2
as §3, with “50” for “50 μL of all PAK inhibitor compound 2× stocks were added to appropriate wells already containing 50 μL of cells and medium to expose cells to the final concentrations of compounds required. 50”
as §4, §5

NCI-H520 cells = assay: as above; assay type: cell-based; details: 0 μM-30 μM, 72 hours, FIG. 9
Description: as §1, with “The PAK1 amplified” for “NF2 deficient”
as §2
as §3, with “50” for “50 μL of all PAK inhibitor compound 2× stocks were added to appropriate wells already containing 50 μL of cells and medium to expose cells to the final concentrations of compounds required. 50”
as §4, §5

SK-MES-1 cells = assay: as above; assay type: cell-based; details: 0 μM-30 μM, 72 hours, FIG. 10
Description: as §1, with “The PAK1 amplified” for “NF2 deficient”
as §2
as §3, with “50” for “50 μL of all PAK inhibitor compound 2× stocks were added to appropriate wells already containing 50 μL of cells and medium to expose cells to the final concentrations of compounds required. 50”
as §4, §5

Chain of PAK1 (Q13153 whole entry): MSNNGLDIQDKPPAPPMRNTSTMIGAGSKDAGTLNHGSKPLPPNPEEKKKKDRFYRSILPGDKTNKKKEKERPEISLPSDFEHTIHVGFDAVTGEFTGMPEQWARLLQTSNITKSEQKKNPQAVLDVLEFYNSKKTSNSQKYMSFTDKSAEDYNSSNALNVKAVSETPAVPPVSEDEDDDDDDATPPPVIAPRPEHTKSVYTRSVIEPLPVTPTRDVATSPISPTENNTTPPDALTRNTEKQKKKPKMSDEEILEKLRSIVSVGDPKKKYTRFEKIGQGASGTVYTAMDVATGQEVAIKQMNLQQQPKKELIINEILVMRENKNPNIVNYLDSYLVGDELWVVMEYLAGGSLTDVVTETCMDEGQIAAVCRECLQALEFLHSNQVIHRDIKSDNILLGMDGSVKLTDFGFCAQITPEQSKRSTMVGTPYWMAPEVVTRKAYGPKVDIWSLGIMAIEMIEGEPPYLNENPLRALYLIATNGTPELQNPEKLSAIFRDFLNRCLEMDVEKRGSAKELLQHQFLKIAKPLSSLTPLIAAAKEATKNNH

SMILES	IC50 (PAK1)	IC50 (PAK2 (PAK65))	IC50 (PAK3)	IC50 (PAK4)	cell number compared to DMSO control treated cells (NF2−/− Schwannoma cells)	growth (%) with increasing concentration [1]	growth (%) with increasing concentration (EBC-1 cells)	growth (%) with increasing concentration (NCI-H520 cells)	growth (%) with increasing concentration (SK-MES-1 cells)
CCn1c(=O)c(-c2ccc(-c3cscn3)cc2Cl)cc2cnc(Nc3ccc(N4CCN(C)CC4)cc3)nc21	< 0.05 µM	0.05 to 0.5 µM	0.05 to 0.5 µM	≥ 5 µM	–	–	–	–	–
CCn1c(=O)c(-c2ccc(C3CC3)s2)cc2cnc(Nc3ccc(N4CCN(C)CC4)cc3)nc21	> 5 µM	> 5 µM	> 5 µM	≥ 5 µM	–	–	–	–	–
CCn1c(=O)c(-c2ccc(-c3csc(C)n3)s2)cc2cnc(Nc3ccc(N4CCN(C)CC4)cc3)nc21	> 5 µM	> 5 µM	> 5 µM	≥ 5 µM	–	–	–	–	–
CCn1c(=O)c(-c2ccc(-c3noc(C)n3)s2)cc2cnc(Nc3ccc(N4CCN(C)CC4)cc3)nc21	> 5 µM	> 5 µM	> 5 µM	≥ 5 µM	–	–	–	–	–
CCn1c(=O)c(-c2ccc(-c3ccccn3)s2)cc2cnc(Nc3ccc(N4CCN(C)CC4)cc3)nc21	> 5 µM	> 5 µM	> 5 µM	≥ 5 µM	–	–	–	–	–
CCn1c(=O)c(-c2ccc(-c3cccnc3)s2)cc2cnc(Nc3ccc(N4CCN(C)CC4)cc3)nc21	> 5 µM	> 5 µM	> 5 µM	≥ 5 µM	–	–	–	–	–
CCn1c(=O)c(-c2ccc(-c3nnn[nH]3)s2)cc2cnc(Nc3ccc(N4CCN(C)CC4)cc3)nc21	> 5 µM	> 5 µM	> 5 µM	≥ 5 µM	–	–	–	–	–
CCn1c(=O)c(-c2ccc(-c3nnn[nH]3)cc2Cl)cc2cnc(Nc3ccc(N4CCN(C)CC4)cc3)nc21	> 5 µM	> 5 µM	> 5 µM	≥ 5 µM	–	–	–	–	–
CCn1c(=O)c(-c2ccc(-c3ccc(OC)nc3)cc2Cl)cc2cnc(Nc3ccc(N4CCN(C)CC4)cc3)nc21	< 0.05 µM	< 0.05 µM	< 0.05 µM	0.05 to 0.5 µM	–	–	–	–	–
CC(=O)N(C)c1ccc(-c2ccc(Cl)c(-c3cc4cnc(Nc5ccc(C6CCN(C)CC6)cc5)nc4n(C)c3=O)c2)cn1	> 5 µM	> 5 µM	> 5 µM	≥ 5 µM	–	–	–	–	–
CCn1c(=O)c(-c2ccc(-c3cnc(C)s3)cc2Cl)cc2cnc(Nc3ccc(C4CCN(C)CC4)cc3)nc21 [Example 101]	–	–	–	–	reduction in cell number	–	–	–	–
CCn1c(=O)c(-c2ccc(-c3noc(C)n3)cc2Cl)cc2cnc(Nc3ccc(C4CCN(C)CC4)cc3)nc21 [Example 122]	–	–	–	–	reduction in cell number	the growth (%) of the cells reduced	the growth (%) decreased	the growth (%) decreased	the growth (%) decreased
CCn1c(=O)c(-c2ccc(-c3cncc(C)n3)cc2Cl)cc2cnc(Nc3ccc(C4CCN(C)CC4)cc3)nc21 [Example 190]	–	–	–	–	reduction in cell number	–	–	–	–
CCn1c(=O)c(-c2ccc(-c3cccnc3)cc2Cl)cc2cnc(Nc3ccc(N4CCN(C(C)C)CC4)cc3)nc21 [drawing 650]	< 0.05 µM	< 0.05 µM	< 0.05 µM	≥ 5 µM	–	–	–	–	–
CCn1c(=O)c(-c2ccc(-c3cccnc3)cc2Cl)cc2cnc(Nc3ccc(N4CCN(C(C)C)CC4)cc3)nc21 [drawing 655]	< 0.05 µM	< 0.05 µM	< 0.05 µM	0.05 to 0.5 µM	–	–	–	–	–
